These results are taken from ChEMBL document CHEMBL1133131, “Discovery of an orally bioavailable alkyl oxadiazole beta3 adrenergic receptor agonist” (Bioorg Med Chem Lett, 2000).

In data set [1] the target is T1, Beta-3 adrenergic receptor (Homo sapiens, UniProt P13945). Put plainly: Agonist activity as increasedn cAMP production in Chinese hamster ovary (CHO)cells expressing human beta-3 adrenergic receptor. The format is functional.
Target sequence in this assay (P13945 whole entry): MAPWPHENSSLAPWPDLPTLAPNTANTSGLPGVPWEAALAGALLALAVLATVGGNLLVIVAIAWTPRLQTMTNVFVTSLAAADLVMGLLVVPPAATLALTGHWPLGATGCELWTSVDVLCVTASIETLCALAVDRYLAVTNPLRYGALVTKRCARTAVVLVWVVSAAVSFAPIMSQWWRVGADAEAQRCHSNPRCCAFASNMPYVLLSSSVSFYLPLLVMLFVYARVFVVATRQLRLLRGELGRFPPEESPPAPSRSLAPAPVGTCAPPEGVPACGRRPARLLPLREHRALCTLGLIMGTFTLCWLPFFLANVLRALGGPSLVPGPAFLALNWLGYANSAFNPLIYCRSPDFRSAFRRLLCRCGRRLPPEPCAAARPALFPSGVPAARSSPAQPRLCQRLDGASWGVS
Data set [2] addresses Beta-2 adrenergic receptor (Homo sapiens, UniProt P07550). Put plainly: Binding affinity towards Beta-2 adrenergic receptor prepared from CHO cells expressing the cloned human receptor in the presence of [125I]iodocyanopindolol. It is filed as cell-based.
The target in data set [3] is Beta-1 adrenergic receptor (Homo sapiens, UniProt P08588). Put plainly: Binding affinity towards cloned human Beta-1 adrenergic receptor prepared from CHO cells in the presence of [125I]iodocyanopindolol. The format is cell-based.
Beta-1 adrenergic receptor, sequence (P08588 whole entry): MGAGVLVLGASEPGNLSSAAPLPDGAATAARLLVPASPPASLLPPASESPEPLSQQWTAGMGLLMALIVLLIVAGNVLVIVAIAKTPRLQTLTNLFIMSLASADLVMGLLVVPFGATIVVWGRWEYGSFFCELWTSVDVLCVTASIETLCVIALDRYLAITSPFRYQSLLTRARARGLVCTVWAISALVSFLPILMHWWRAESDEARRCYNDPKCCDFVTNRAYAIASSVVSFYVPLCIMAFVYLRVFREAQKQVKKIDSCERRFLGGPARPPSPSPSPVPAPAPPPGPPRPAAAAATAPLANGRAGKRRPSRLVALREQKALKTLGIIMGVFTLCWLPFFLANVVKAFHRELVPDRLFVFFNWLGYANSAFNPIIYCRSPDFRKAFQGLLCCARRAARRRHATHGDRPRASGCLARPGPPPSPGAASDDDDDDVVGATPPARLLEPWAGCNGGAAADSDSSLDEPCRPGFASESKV
For data set [4], the target named is T1, Beta-3 adrenergic receptor. The data set can be described thus: Adenylyl cyclase activation as percent maximal isoproterenol stimulation of CHO cells expressing beta-3 receptor. It is filed as functional, cell-based.
Target sequence in this assay (P13945 whole entry, looked up): as the sequence (P13945 whole entry) above
Data set [5] can be described thus: Oral bioavailability of perorally administered compound (10 mg/kg) was tested in dogs. It is filed as ADME, organism-based, Canis lupus familiaris. Conditions: dog, in vivo.
The test system of data set [6] is Monkey. The data set can be described thus: The compound was evaluated for dose- dependent elevation of plasma glycerol in anesthetized rhesus. As to conditions: Cercopithecidae, in Macaca mulatta. The format is functional.
Data set [7] in a line: Oral bioavailability of intravenously administered compound (3 mg/kg) was tested in rats. The format is ADME, organism-based. As to conditions: rat, in vivo, intravenous.
A short description of data set [8]: Half life in dog. The format is ADME, organism-based, Canis lupus familiaris. Conditions: in vivo.
Data set [9] concerns Monkey. The data set can be described thus: The compound was tested for the percent increase in heart rate at the dose level of 10 mg/kg; No significant alteration. It is filed as functional, organism-based. The arrangement: dose 10 mg/kg. As to conditions: Cercopithecidae.
Data set [10] can be described thus: Half life in rats. Conditions: rat, in vivo. The format is ADME, organism-based.

The source made the active and inactive calls. The calls are words filed in the database; no cut-off is given here.

Beta-2 adrenergic receptor, sequence (P07550 whole entry): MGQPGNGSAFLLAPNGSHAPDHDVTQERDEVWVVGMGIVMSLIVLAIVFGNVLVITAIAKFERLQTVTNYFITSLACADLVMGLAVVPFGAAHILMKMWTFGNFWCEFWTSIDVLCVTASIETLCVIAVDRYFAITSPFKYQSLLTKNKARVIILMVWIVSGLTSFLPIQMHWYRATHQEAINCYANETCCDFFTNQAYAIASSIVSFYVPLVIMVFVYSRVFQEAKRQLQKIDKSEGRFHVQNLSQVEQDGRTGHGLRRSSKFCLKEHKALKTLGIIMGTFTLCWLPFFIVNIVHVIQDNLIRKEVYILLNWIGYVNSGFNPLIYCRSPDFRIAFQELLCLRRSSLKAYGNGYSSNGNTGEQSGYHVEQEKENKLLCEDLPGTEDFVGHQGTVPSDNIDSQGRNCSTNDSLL

The term EC50 denotes the concentration giving half of the maximal effect. What is called IC50 is the concentration needed to halve the response being measured. The molecule `CCC(=O)CCc1nc(-c2ccc(S(=O)(=O)Nc3ccc(CCNC[C@H](O)c4cccnc4)cc3)cc2)no1` displayed an EC50 in data set [1] of 0.066 µM. For the same molecule, the IC50 in data set [2] came out at 12 µM; in data set [3], 25 µM. Besides, the Activation in data set [4] is 75%.
In [1], `O=S(=O)(Nc1ccc(CCNC[C@H](O)c2cccnc2)cc1)c1ccc(-c2noc(CCCC3CCCCC3)n2)cc1` yielded a half-maximal effective concentration (EC50) of 0.019 µM. Also, the results for the IC50 in [2] and in [3] were 0.66 µM and 1.97 µM, respectively. In data set [4], this molecule showed an Activation of 62%.
For the molecule `O=C(CCc1nc(-c2ccc(S(=O)(=O)Nc3ccc(CCNC[C@H](O)c4cccnc4)cc3)cc2)no1)N1CCCC1`, in [1], a half-maximal effect (EC50) was put at 0.12 µM. Moreover, the IC50 in data set [2] came to 51 µM; in data set [3] it was 30 µM. Besides, the Activation in [4] was 49%.
In turn, `CCCc1nc(-c2ccc(S(=O)(=O)Nc3ccc(CCNC[C@H](O)c4cccnc4)cc3)cc2)no1` came in with an EC50 in data set [1] of 0.087 µM. Besides, the half-maximal inhibitory concentration (IC50) in data set [2] and in data set [3] was 8.5 µM each time. The molecule also gave an Activation in [4] of 70%.
Take `CCCCc1nc(-c2ccc(S(=O)(=O)Nc3ccc(CCNC[C@H](O)c4cccnc4)cc3)cc2)no1`: the midpoint of the response in [1], the EC50, lay at 0.032 µM. In addition, the 50% inhibitory concentration (IC50) was 6.5 µM in [2] and 55 µM in data set [3]. In data set [4], this molecule showed an Activation of 86%.
Molecule `CC(C)CCCc1nc(-c2ccc(S(=O)(=O)Nc3ccc(CCNC[C@H](O)c4cccnc4)cc3)cc2)no1` gave an EC50 in data set [1] of 0.029 µM. The IC50 is 1 µM in data set [2] and 26 µM in data set [3]. The Activation in data set [4] is 58%.
Consider `CCCCCCc1nc(-c2ccc(S(=O)(=O)Nc3ccc(CCNC[C@H](O)c4cccnc4)cc3)cc2)no1`, for which it took 0.035 µM to reach a half-maximal effect in [1] (EC50). In addition, the results for the IC50 in data set [2] and in [3] were 1 µM and 2 µM, respectively. This molecule also showed an Activation in data set [4] of 79%.
In data set [1], `CCCCCCCCc1nc(-c2ccc(S(=O)(=O)Nc3ccc(CCNC[C@H](O)c4cccnc4)cc3)cc2)no1` showed an EC50 of 0.054 µM. Besides, the IC50 came to 2.5 µM in data set [2] and 9 µM in data set [3]. In [4], the Activation is 90%.
Take `CCC(O)CCc1nc(-c2ccc(S(=O)(=O)Nc3ccc(CCNC[C@H](O)c4cccnc4)cc3)cc2)no1` (stereo not given in full): a half-maximal response in [1] (EC50) required 0.075 µM. Moreover, the IC50 in data set [2] worked out at 24 µM; in [3], 56 µM. In data set [4], this molecule registered an Activation of 53%.
Consider `O=S(=O)(Nc1ccc(CCNC[C@H](O)c2cccnc2)cc1)c1ccc(-c2noc(CCCC3CCCC3)n2)cc1`, for which the EC50 in data set [1] was found to be 0.015 µM. Also, the IC50 in data set [2] was determined as 0.962 µM; in data set [3], 5.5 µM. Further, the Activation in [4] was 83%.
In the case of `CC(=O)CCCc1nc(-c2ccc(S(=O)(=O)Nc3ccc(CCNC[C@H](O)c4cccnc4)cc3)cc2)no1`, the EC50 in [1] was determined as 0.13 µM. The IC50 was 57 µM in data set [2] and 70 µM in [3]. Moreover, in [4], the Activation worked out at 69%.
In the case of `CCCCCCCc1nc(-c2ccc(S(=O)(=O)Nc3ccc(CCNC[C@H](O)c4cccnc4)cc3)cc2)no1`, the EC50 in data set [1] is 0.039 µM. The IC50 in data set [2] is 1.41 µM; in [3], 2 µM. Also, the Activation in [4] came out at 86%.
In [1], `O=S(=O)(Nc1ccc(CCNC[C@H](O)c2cccnc2)cc1)c1ccc(-c2noc(CCOC3CCCC3)n2)cc1` showed an EC50 of 0.013 µM. In addition, the values for the IC50 in data set [2] and in data set [3] were 2.67 µM and 8.33 µM, respectively. The Activation in data set [4] amounted to 70%.
For `CC(O)CCCc1nc(-c2ccc(S(=O)(=O)Nc3ccc(CCNC[C@H](O)c4cccnc4)cc3)cc2)no1` (stereo not given in full), the concentration for a half-maximal effect (EC50) in data set [1] is more than 0.1 µM. The IC50 in data set [2] came out at 44 µM; in data set [3] it was 10 µM. The same molecule came in with an Activation in data set [4] of 20%.
For `Cc1nc(-c2ccc(S(=O)(=O)Nc3ccc(CCNC[C@H](O)c4cccnc4)cc3)cc2)no1`, in that order: more than 0.1 µM, 10 µM, 10 µM and 15%.
The bioavailability is the share of a dose that reaches the circulation, judged against a reference dose that is usually intravenous. A word on the ED50: it is the dose at which the effect has come halfway, by size or by number of responders. As a reminder, the half-life is the time in which the quantity being followed falls by half. As to `CCCCCc1nc(-c2ccc(S(=O)(=O)Nc3ccc(CCNC[C@H](O)c4cccnc4)cc3)cc2)no1`, the bioavailability in data set [5] was 62%; in [7], 36%. The response in data set [1] was half-maximal at 0.023 µM (EC50). Further, the IC50 in data set [2] is 3 µM; in data set [3] it was 5.5 µM. In the data set on Monkey [6], this molecule had an ED50 of 0.22 mg/kg. Further, the results for the half-life in data set [8] and in [10] were 3.6 h and 2.4 h, respectively. Further, the result in the data set on Monkey [9] was inactive. The Activation in data set [4] stood at 53%.
